# What was measured:
# [1] = test system: murine bone marrow-derived macrophages; assay: area under cytotoxicity dose-response curve (AUC (% cytotoxicity x dose, relative)); higher = more cytotoxic; conditions: duration: 6 days; dose range: 0.13-80 uM, 8 points
# Method in brief: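 Primary murine bone marrow-derived macrophages in opaque 384-well plates were exposed to an 8-point, 2.5-fold dilution series (final 80–0.13 μM) for 6 days at 37 °C in 5% CO2. Viability was read with Promega's CellTiter-Glo luminescence assay, and percent cytotoxicity was normalised to vehicle and positive control wells. Cytotoxicity is reported as the area under the dose–response curve, calculated in GraphPad Prism version 10.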
# [2] = test system: Mycobacterium tuberculosis CDC1551 (intracellular, in murine BMDM); assay: area under intracellular growth-inhibition dose-response curve (AUC (% inhibition x dose, relative)); higher = more potent; conditions: duration: 6 days; dose range: 0.13-80 uM, 8 points
# Method in brief: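 Macrophages derived from primary murine bone marrow were infected for 1 h at multiplicity of infection 1 with luciferase-expressing M. tuberculosis CDC1551, then treated for 6 days at final concentrations of 80–0.13 μM. Bright-Glo luciferin signal, normalised to a reference drug control and the lowest-concentration wells, gave the growth readout. Area under the growth-inhibition dose–response curve was then calculated in GraphPad Prism.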
SMILES,area under cytotoxicity dose-response curve [1],area under intracellular growth-inhibition dose-response curve [2]
N#C/C(=N/Nc1ccc(OC(F)(F)F)cc1)C(N)=S,90,62.6
Cc1cccc(NC(=O)COC(=O)CCc2c[nH]c3ccccc23)c1C,28.4,27.4
O=C(NCC1CCCO1)c1csc2c1CCCCC2 (centres undefined),19.4,143
C/C(CC(=O)NCCN1CCOCC1)=N\NC(=O)c1ccncc1,12.5,206
O=C(Nc1ccc(NC(=S)NC(=O)c2ccccc2F)cc1)c1cccs1,13.8,268
O=C(CSc1ccccc1)NNC(=O)c1ccncc1,18.7,219
O=C(Nc1ccc(S(=O)(=O)NC2=NCCCCC2)cc1)c1cccs1,3.27,43.4
Cc1c(C(=O)N(C)C)sc(NC(=O)c2cccc([N+](=O)[O-])c2)c1C#N,51.5,13.8
COC(=O)c1c(NC(=O)CN2C(=O)NC3(CCCCC3C)C2=O)sc2c1CCC2 (centres undefined),4.39,78.7
Cc1ccc(C(=O)Sc2cccccc2=O)cc1,143,< 0
O=C(NC1CCCCCCC1)c1ccc(F)cc1,16.9,180
CC1=CCCC(C)(C)C1/C=C/C(C)=N/NC(=O)c1ccncc1 (centres undefined),< 0,247
COc1ccc(CNc2nc3nc(C)c(Cl)c(O)n3n2)cc1,9.37,186
CCC12CN3CCN(CC(C3)/C1=N/NC(=O)c1ccncc1)C2,13.3,206
CSc1sccc1/C=N/NC(=O)c1ccncc1,15.4,249
C#CCSc1nnc(-c2ccc([N+](=O)[O-])cc2)o1,< 0,246

SMILES,area under cytotoxicity dose-response curve [1],area under intracellular growth-inhibition dose-response curve [2]
CCN1/C(=C/c2ccc3cc(C)ccc3[n+]2CC)Sc2ccccc21.[I-],176,144
O=C(OCC(=O)C12CC3CC(CC(C3)C1)C2)c1ccc(CO)cc1,< 0,124
COc1ccc(OC)c2nc3c(cc12)CCC3,23.1,211
CCC(=O)N1NC(=C2C(=O)N(C)C(=O)N(C)C2=O)CC1c1ccccc1 (centres undefined),23.3,122
CC[C@@H](C)[C@H](CNC)NC[C@@H](Cc1cccc2ccccc12)NCCc1cccc(C(F)(F)F)c1,117,144
Nc1ccc(C(=O)[O-])c(O)c1.O.[Na+],0.704,184
Cn1ccc(=Nc2ccc(NC(=O)c3ccc(/N=c4\ccn(C)c5ccc([N+](=O)[O-])cc45)cc3)cc2)cc1,108,260
CNc1nc(N2CCc3ccccc32)ncc1F,< 0,140
N#Cc1ccc(NCC(=O)N2CCN(S(=O)(=O)c3ccccc3)CC2)cc1,< 0,56.7
CC(=NNC(=O)c1ccncc1)c1cccc(Cl)c1,< 0,258
Cc1ccc(-n2c(C)cc(/C=N/NC(=O)c3ccncc3)c2C)c(C)c1,< 0,268
CCCN(CCC)CC(O)Cn1cc(/C=C/C(=O)c2ccccc2)c2ccccc21 (centres undefined),9.39,226
O=C(C1COc2ccccc2O1)N1CCCCC1 (centres undefined),76,236
COc1ccc(NS(=O)(=O)c2ccc(N3CCOCC3)c(N)c2)cc1,< 0,34.5
COc1ccc(C2=NOC(CNC(N)=S)C2)cc1 (centres undefined),7.88,92.8
CCCCCCCn1c(=O)c(C(=O)Nc2cnccn2)c(O)c2ccccc21,7.68,66
